Key:
human H1 = biological target: T1, human H1 (Homo sapiens, UniProt P35367); experiment: In vitro histamine H1 receptor cell-based aequorin bioluminescence antagonist assay; conditions: CHO-K1 cells expressing human H1 and aequorin; histamine at EC80; read-out: H1 Antagonist EC50
T1 construct: host or cells: CHO-K1, also expressing mitochondrion-targeted aequorin
In short: (§1)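 CHO-K1 cells stably expressing human H1 or H4 plus mitochondrial aequorin (H4 also with Gα16), loaded with 5 μM coelenterazine-h for 4 h at ~21 °C. Compounds preincubated 15 min at room temperature, then histamine at EC80 added.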

[1] = test system: tissue eosinophil peroxidase (EPO); experiment: Allergic conjunctivitis in passively sensitized guinea pigs, conjunctival EPO activity; format: in vivo; parameters: key: a test compound was assigned a “+” if a ≦0.1% qd dose was statistically equivalent to dexamethasone with respect to reduction of EPO activity; a “−” was assigned if the compound was statistically inferior to dexamethasone and not different than vehicle; conditions: ≦0.1% qd topical dose (1 hour prior to challenge); reduction of conjunctival EPO activity 24 h after ovalbumin challenge, compared with 0.1% w/v dexamethasone; guinea pig
Experimental: Allergic Conjunctivitis in Passively Sensitized Guinea Pigs
Male Hartley VAF outbred guinea pigs were passively sensitized to ovalbumin by a single OD subconjunctival injection of undiluted guinea pig anti-ovalbumin antiserum 24 hours before OD topical challenge with 500 μg ovalbumin in saline. Control animals were injected with saline only and challenged with ovalbumin. To determine acute phase drug efficacy, 30 min after challenge animals were clinically scored by a masked observer for severity of signs of conjunctivitis based on a standard scale. Test compounds were administered topically 1 hour prior to challenge (QD protocol), or 1 hour prior to challenge and again 8 hours after challenge (BID protocol). […] EPO activity in supernatants was measured by reacting diluted homogenates with a solution of 6 mM o-phenylenediamine substrate and 8.8 mM H2O2 in homogenization buffer for 3 min. The reaction was stopped with 4M H2SO4 and absorbances were measured at 490 nm on a spectrophotometric plate reader. Total EPO in samples was calculated from a standard curve of recombinant human EPO in each assay. […] Background EPO activity was determined from the unsensitized, antigen-challenged control group. Percent inhibition was calculated from the sensitized, antigen-challenged, vehicle-treated control group in each experiment. […]

human H4 = biological target: T2, human H4 (Homo sapiens, UniProt Q9H3N8); experiment: In vitro histamine H4 receptor cell-based aequorin bioluminescence antagonist assay; conditions: CHO-K1 cells expressing human H4, aequorin and Gα16; histamine at EC80
T2 construct: host or cells: CHO-K1, also expressing mitochondrion-targeted aequorin and human Gα16
In short: as §1

T1 sequence (P35367 whole entry): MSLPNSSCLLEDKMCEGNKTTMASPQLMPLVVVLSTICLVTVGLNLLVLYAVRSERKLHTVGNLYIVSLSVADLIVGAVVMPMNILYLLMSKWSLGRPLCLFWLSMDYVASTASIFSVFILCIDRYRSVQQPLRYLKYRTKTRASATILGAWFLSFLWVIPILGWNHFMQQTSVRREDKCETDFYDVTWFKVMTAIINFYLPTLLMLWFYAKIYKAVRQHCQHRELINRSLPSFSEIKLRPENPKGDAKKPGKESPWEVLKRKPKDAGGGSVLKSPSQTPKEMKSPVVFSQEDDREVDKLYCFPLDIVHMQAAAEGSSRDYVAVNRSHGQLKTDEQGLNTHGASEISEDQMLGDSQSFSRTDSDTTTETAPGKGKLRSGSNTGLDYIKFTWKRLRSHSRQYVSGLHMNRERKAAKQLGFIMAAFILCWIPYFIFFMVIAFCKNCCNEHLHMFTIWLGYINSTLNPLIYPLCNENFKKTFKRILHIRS

| EC50 (human H1) [µM] | EC50 (human H4) [µM] | SMILES | QD activity [1] |
| --- | --- | --- | --- |
| > 10 |  | Cc1csc2ncnc(NC3Cc4ccccc4C3)c12 [Example 29, N-(2,3-dihydro-1H-inden-2-yl)-5-methylthieno[2,3-d]pyrimidin-4-amine] | + |
| > 10 | > 10 | Cc1csc2ncnc(NCc3ccccn3)c12 [Example 85, 5-methyl-N-(pyridin-2-ylmethyl)thieno[2,3-d]pyrimidin-4-amine] | + |

From patent US20100063047A1 (KALYPSYS, INC., priority 2008, published 2010)
